In PMC10951314 (Nature Communications, 2024):

Key:
MavL42-435-UbVME = target: T1, MavL42-435-UbVME (Legionella pneumophila, UniProt Q5ZSJ1)
T1 construct: gene lpg2526

MavL42-435 = target: T2, MavL42-435 (Legionella pneumophila, UniProt Q5ZSJ1)
T2 construct: gene lpg2526
T2 sequence (Q5ZSJ1 42-435 limits assumed): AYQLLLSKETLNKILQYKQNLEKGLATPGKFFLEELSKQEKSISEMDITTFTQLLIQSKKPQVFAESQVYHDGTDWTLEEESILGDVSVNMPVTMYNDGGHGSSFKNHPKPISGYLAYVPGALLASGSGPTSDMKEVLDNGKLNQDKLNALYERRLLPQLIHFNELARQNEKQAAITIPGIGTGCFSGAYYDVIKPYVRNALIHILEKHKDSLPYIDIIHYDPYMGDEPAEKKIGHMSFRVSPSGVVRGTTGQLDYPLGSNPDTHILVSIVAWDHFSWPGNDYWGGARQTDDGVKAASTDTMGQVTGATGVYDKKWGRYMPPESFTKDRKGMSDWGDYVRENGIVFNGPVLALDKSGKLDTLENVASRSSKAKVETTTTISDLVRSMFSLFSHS

In the case of `Nc1ncnc2c1ncn2[C@@H]1O[C@H](COP(=O)(O)OP(=O)(O)OC[C@H]2OC(O)[C@H](O)[C@@H]2O)[C@@H](O)[C@H]1O` (some centres unmarked) [ADPR], the “X-ray crystal structure, 2.15 Å (crystal soak)” value (MavL42-435-UbVME) is reported as “we observed electron density for ADPR in one of the MavL-UbVME subunits” and the Kd (MavL42-435) is reported as 25.8 µM.
